Consider nine compounds from ChEMBL document CHEMBL4265875, “A comprehensive review on Aurora kinase: Small molecule inhibitors and clinical trial studies” (Eur J Med Chem, 2017).

Molecules are shown by their SMILES.

Usually IC50 stands for the concentration at which inhibition is half-maximal. As a reminder, the Ki is a dissociation constant, usually derived from enzyme kinetics or from competition with a known ligand. In general, GI50 refers to the concentration giving 50% growth inhibition. Low readings indicate more potent growth inhibition, high ones less potent growth inhibition.

In test [1] the test system is HCT-116. Description: Growth inhibition of human HCT116 cells by XTT assay. The class given is functional, cell-based. On the technique in general: Tetrazolium dyes change colour on reduction, which living cells bring about.
The test system of the next test is KCL-22. Description: Induction of apoptosis in human KCL22 cells by Annexin V staining based assay. The class given is functional, cell-based.
A further test has as its system HT-29. Description: Growth inhibition of human HT-29 cells by XTT assay. The class given is functional, cell-based.
The subject of a further test is HeLa. Description: Growth inhibition of human HeLa cells by XTT assay. It is filed as functional, cell-based.
The target of a further test is Aurora kinase A (Homo sapiens, UniProt O14965). Put plainly: Inhibition of Aurora A kinase (unknown origin).
In test [2] the target is T1, Aurora kinase B/Inner centromere protein (Homo sapiens, UniProt Q96GD4). Description: Inhibition of Aurora B/INCENP (unknown origin) assessed as affinity constant pre-incubated for 1 hr followed by FL-PKAtide substrate and ATP addition. The class given is protein-complex assay.
For test [3], the target named is T2, Aurora kinase B/Inner centromere protein (Homo sapiens) (UniProt Q96GD4+Q9NQS7). Description: Inhibition of Aurora B/INCENP (unknown origin) assessed as inhibitor-enzyme complex half life pre-incubated for 1 hr followed by FL-PKAtide substrate and ATP addition. The class given is protein-complex assay.
In test [4] the target is T1, Aurora kinase B/Inner centromere protein. Description: Inhibition of Aurora B/INCENP (unknown origin) pre-incubated for 1 hr followed by FL-PKAtide substrate and ATP addition. It is filed as protein-complex assay.
In test [5] the test system is PC-3. Description: Antitumor activity against human PC3 cells xenografted in nude mouse assessed as inhibition of tumor growth at 10 mg/kg, po qd. It is filed as functional. The conditions noted are these: PC-3, po, read-out: TGI. (Xenograft models place foreign cells or tissue in a host animal.)
For test [6], the system named is PC-3. Put plainly: Antitumor activity against human PC3 cells xenografted in nude mouse assessed as inhibition of tumor growth at 30 mg/kg, po qd. The class given is functional. The conditions noted are these: PC-3, po, read-out: TGI.
In test [7] the target is T3, Aurora kinase B (Homo sapiens, UniProt Q96GD4). Put plainly: Inhibition of full-length His-tagged recombinant aurora B (unknown origin) expressed in insect cells using biotinylated LRRWSLG substrate by scintillation proximity assay.
For test [8], the target named is T3, Aurora kinase B. Put plainly: Inhibition of aurora B in human MDA-MB-231 cells assessed as reduction in enzyme autophosphorylation incubated for 4 hrs by high-content immunofluorescence imaging. The class given is cell-based.
Test [9] deals with T3, Aurora kinase B. Put plainly: Inhibition of aurora B in human MDA-MB-231 cells assessed as reduction in phosphorylation of histone H3 on Ser10 incubated for 4 hrs by high-content immunofluorescence imaging. The class given is cell-based.
Test [10] deals with HCT-116. Description: Antitumor activity against human HCT116 cells xenografted in mouse assessed as inhibition of tumor growth at 20 mg/kg, po qd for 10 days. The class given is functional. The following applies: HCT-116, po, 240 h, read-out: TGI.
Test [11] is described as follows: Inhibition of Xenopus laevis aurora B (60 to 361 residues)/INCENP.
The test system of the next test is HL-60. Description: Antitumor activity against human HL60 cells xenografted in rat assessed as inhibition of tumor growth at 25 mg/kg, iv bid. The conditions noted are these: HL-60, iv, read-out: TGI. It is filed as functional.
The test system of a further test is A2780. Put plainly: Growth inhibition of human A2780 cells incubated for 72 hrs by MTT assay. It is filed as functional. The following applies: A2780, 72 h.
Another test deals with SW-620. Put plainly: Growth inhibition of human SW620 cells incubated for 72 hrs by MTT assay. The class given is functional. The following applies: SW-620, 72 h.
The nature of test [12]: Inhibition of CYP450 (unknown origin). The class given is ADME, Homo sapiens.
For test [13], the target named is T2, Aurora kinase B/Inner centromere protein (Homo sapiens).
Description: Inhibition of human Aurora B/INCENP assessed as dissociation half life pre-incubated for 30 mins before 5-FAM-PKAtide substrate addition and measured after 120 mins

T3 sequence (Q96GD4 whole entry): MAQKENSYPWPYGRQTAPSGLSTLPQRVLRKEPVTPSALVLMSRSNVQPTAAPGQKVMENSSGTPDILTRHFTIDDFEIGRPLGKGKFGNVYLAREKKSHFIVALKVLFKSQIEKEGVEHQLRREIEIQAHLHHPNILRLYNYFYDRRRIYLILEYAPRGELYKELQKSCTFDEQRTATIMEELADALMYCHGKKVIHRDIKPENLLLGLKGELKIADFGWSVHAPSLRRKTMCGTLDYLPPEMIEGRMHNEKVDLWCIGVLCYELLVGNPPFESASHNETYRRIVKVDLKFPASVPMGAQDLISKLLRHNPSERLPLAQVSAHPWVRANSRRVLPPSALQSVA
T1 sequence (Q96GD4 whole entry): as above
T1 sequence (Q9NQS7 whole entry, further chain): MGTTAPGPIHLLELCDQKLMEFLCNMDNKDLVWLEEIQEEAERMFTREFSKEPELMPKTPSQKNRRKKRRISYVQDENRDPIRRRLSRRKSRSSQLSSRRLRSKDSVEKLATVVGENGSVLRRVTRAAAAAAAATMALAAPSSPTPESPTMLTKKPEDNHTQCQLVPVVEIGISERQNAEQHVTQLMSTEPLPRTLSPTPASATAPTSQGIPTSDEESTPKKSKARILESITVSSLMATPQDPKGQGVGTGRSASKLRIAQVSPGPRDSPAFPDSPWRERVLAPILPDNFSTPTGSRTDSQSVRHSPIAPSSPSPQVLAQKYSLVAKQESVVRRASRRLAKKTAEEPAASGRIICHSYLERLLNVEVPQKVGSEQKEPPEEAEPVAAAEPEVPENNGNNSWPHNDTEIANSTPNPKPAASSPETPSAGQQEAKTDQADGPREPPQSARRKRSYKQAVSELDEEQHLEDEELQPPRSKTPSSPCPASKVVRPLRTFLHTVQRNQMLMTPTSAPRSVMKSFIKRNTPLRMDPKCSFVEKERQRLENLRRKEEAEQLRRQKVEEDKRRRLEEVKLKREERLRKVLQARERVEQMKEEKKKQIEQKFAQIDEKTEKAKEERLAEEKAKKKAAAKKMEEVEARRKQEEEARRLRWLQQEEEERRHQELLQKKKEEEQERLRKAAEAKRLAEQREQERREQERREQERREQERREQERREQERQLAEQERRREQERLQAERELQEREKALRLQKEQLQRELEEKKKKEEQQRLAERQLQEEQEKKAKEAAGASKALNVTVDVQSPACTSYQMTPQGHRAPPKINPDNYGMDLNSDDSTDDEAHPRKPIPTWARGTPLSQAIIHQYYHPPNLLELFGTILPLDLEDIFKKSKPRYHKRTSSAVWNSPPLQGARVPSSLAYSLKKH
Aurora kinase A, sequence (O14965 whole entry): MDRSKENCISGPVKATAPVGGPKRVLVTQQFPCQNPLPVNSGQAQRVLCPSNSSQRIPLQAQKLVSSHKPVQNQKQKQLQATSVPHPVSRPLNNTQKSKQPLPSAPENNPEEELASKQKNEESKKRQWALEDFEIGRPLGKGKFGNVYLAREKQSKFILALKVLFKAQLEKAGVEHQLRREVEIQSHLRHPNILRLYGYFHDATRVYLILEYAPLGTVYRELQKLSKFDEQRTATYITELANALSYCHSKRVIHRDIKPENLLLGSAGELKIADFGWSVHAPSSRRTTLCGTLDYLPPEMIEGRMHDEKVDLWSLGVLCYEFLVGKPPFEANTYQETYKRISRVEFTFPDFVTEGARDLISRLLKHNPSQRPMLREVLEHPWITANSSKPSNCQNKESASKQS

Consider `CCN1CCN(C(=O)Cc2ccc(Nc3ncc(F)c(Nc4ccc(C(=O)Nc5ccccc5Cl)cc4)n3)cc2)CC1`, for which the IC50 in the test with HCT-116 [1] was 190 to 378 nM; in the test with KCL-22, 5000 nM; with HT-29 it was 5600 nM; with HeLa, 416 nM.
In turn, `O=C1c2[nH]c3cc(-c4ccco4)nn3c(=O)c2CN1Cc1ccccc1` came in with an IC50 on Aurora kinase A of 560 nM.
Turning to `CCS(=O)(=O)c1cccc(-c2cc(C(=O)NC3CCN(C)CC3)c(C)c3[nH]c4ncc(C)cc4c23)c1` [TAK-901], the Ki in [2] came out at 0.02 nM. Also, in test [3], the T1/2 amounted to 15.3 h. In test [4], this compound had an IC50 of 15 nM.
Turning to `O=C(O)c1ccc(Nc2ncc3c(n2)-c2ccc(Cl)cc2C(c2c(F)cccc2F)=NC3)cc1` [MLN-8054], in the test on PC-3 [5], the inhibition in vivo at 10 mg/kg worked out at 76%. Also, in the test with PC-3 [6], the inhibition in vivo at 30 mg/kg is 84%.
Regarding `CC(=O)NCC(=O)N1[C@@H]2CC[C@H]1c1ccc(Nc3ncc(C(F)(F)F)c(NC4CCC4)n3)cc12` [PF-03814735], the IC50 amounted to 5 nM at Aurora kinase B [7], 11 nM on Aurora kinase B [8] and 50 nM on Aurora kinase B [9]. Further, in the test on HCT-116 [10], the inhibition in vivo at 20 mg/kg is no more than 50%.
In [11], `CCS(=O)(=O)Nc1ccc2c(c1)/C(=C(/Nc1ccc(CN3CCCCC3)cc1)c1ccccc1)C(=O)N2` [HESPERADIN] displayed an IC50 of 250 nM.
Regarding `CO[C@@H](C(=O)N1Cc2[nH]nc(NC(=O)c3ccc(N4CCN(C)CC4)cc3)c2C1)c1ccccc1` [DANUSERTIB], the inhibition in vivo at 25 mg/kg in the test with HL-60 amounted to 75%.
Consider `Cc1cc(CN2CCN(c3c(Br)cnc4nc(-c5ccc(N6CCN(C)CC6)cc5)[nH]c34)CC2)no1`, for which the GI50 came to 300 nM in the test on A2780 and 140 nM in the test on SW-620. The IC50 in test [12] was greater than 10000 nM.
On to `CCn1cc(-c2ccnc3[nH]c(-c4cccc(CN(C)C)c4)cc23)c(-c2ccc(NC(=O)N(C)C)cc2)n1`, for which the T1/2 in test [13] turned out to be 8 h.
